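Grown in 96-well plates, cells were treated for 48 hours with each compound at five concentrations. Insufficient inhibition: endpoint recorded as highest concentration tested. TGI: total growth inhibition.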
Experiments:
Assay in all cases: NCI tumour cell line growth inhibition, 48 h
[1] = test system: TK-10 renal
[2] = test system: SF-539 CNS
[3] = test system: UACC-62 melanoma
[4] = test system: HOP-62 NSCLC
[5] = test system: OVCAR-3 ovarian
[6] = test system: COLO 205 colon
[7] = test system: SNB-19 CNS
[8] = test system: NCI-H23 lung
[9] = test system: CCRF-CEM leukemia
[10] = test system: IGROV1 ovarian
[11] = test system: NCI-H460 lung
[12] = test system: MDA-N
[13] = test system: RXF 393 renal
[14] = test system: MOLT-4 leukemia
[15] = test system: 786-0 renal
[16] = test system: SR leukemia
[17] = test system: PC-3 prostate
[18] = test system: CAKI-1 renal
[19] = test system: SNB-75 CNS
[20] = test system: T-47D breast
[21] = test system: NCI-H226 lung
[22] = test system: UO-31 renal
[23] = test system: MCF7 breast
[24] = test system: SF-268 CNS
[25] = test system: A549 NSCLC
[26] = test system: OVCAR-4 ovarian
[27] = test system: SK-MEL-5 melanoma
[28] = test system: DU-145 prostate
[29] = test system: HCT-116 colon
[30] = test system: KM12 colon
[31] = test system: SK-MEL-28 melanoma
[32] = test system: EKVX NSCLC
[33] = test system: K-562 leukemia
[34] = test system: SF-295 CNS
[35] = test system: U251 CNS
[36] = test system: SW-620 colon
[37] = test system: M14 melanoma
[38] = test system: BT-549 breast
[39] = test system: HCC-2998 colon
[40] = test system: NCI-H522 lung
[41] = test system: HOP-92 NSCLC
[42] = test system: HCT-15 colon
[43] = test system: MDA-MB-435
[44] = test system: OVCAR-8 ovarian
[45] = test system: RPMI-8226 leukemia
[46] = test system: LOX IMVI melanoma
[47] = test system: HL-60(TB) leukemia
[48] = test system: A498 renal
[49] = test system: MALME-3M melanoma
[50] = test system: ACHN renal
[51] = test system: SK-MEL-2 melanoma
[52] = test system: UACC-257 melanoma
[53] = test system: NCI/ADR-RES ovarian
[54] = test system: MDA-MB-231 breast
[55] = test system: OVCAR-5 ovarian
[56] = test system: HS 578T breast
[57] = test system: SN12C renal
[58] = test system: SK-OV-3 ovarian
[59] = test system: HT29 colon
[60] = test system: LXFL 529 NSCLC
[61] = test system: M19-MEL melanoma
[62] = test system: DLD-1 colon
[63] = test system: HOP-18 NSCLC
[64] = test system: KM20L2 colon
[65] = test system: DMS 114 small cell lung
[66] = test system: DMS 273 small cell lung
[67] = test system: SNB-78 CNS
[68] = test system: XF 498 CNS

Measured: TGI

c1ccc([P+](Cc2ccc(C[P+](c3ccccc3)(c3ccccc3)c3ccccc3)s2)(c2ccccc2)c2ccccc2)cc1
> 100 µM: [1] | [2] | [3] | [4] | [5] | [6] | [7] | [8] | [9] | [10] | [11] | [12] | [13] | [14] | [15] | [16] | [17] | [18] | [19] | [20] | [21] | [22] | [23] | [24] | [25] | [26] | [27] | [28] | [29] | [30] | [31] | [32] | [33] | [34] | [35] | [36] | [37] | [38] | [39] | [40] | [41] | [42] | [43] | [44] | [45] | [46] | [47] | [48] | [49] | [50] | [51] | [52] | [53] | [54] | [55] | [56] | [57] | [58] | [59]

Oc1ccc(Br)cc1C=Nc1ccc(Oc2ccc(N=Cc3cc(Br)ccc3O)cc2)cc1
> 19.6 µM: [1] | [2] | [3] | [4] | [60] | [5] | [6] | [7] | [61] | [8] | [9] | [10] | [11] | [13] | [14] | [15] | [16] | [62] | [63] | [18] | [19] | [21] | [22] | [24] | [25] | [26] | [27] | [29] | [30] | [31] | [32] | [33] | [34] | [35] | [36] | [37] | [39] | [40] | [41] | [64] | [44] | [65] | [66] | [45] | [46] | [47] | [48] | [49] | [50] | [51] | [52] | [55] | [57] | [58] | [59]

O=C1c2ccccc2C(=O)N1CCN(CCN1C(=O)c2ccccc2C1=O)Cc1ccccc1
> 100 µM: [67] | [1] | [3] | [4] | [60] | [5] | [6] | [7] | [61] | [8] | [9] | [11] | [13] | [14] | [15] | [16] | [62] | [18] | [22] | [24] | [25] | [26] | [27] | [29] | [30] | [31] | [32] | [33] | [34] | [35] | [36] | [37] | [68] | [40] | [41] | [42] | [64] | [44] | [65] | [66] | [45] | [46] | [47] | [48] | [50] | [51] | [52] | [57] | [58]

CN(C)c1ccc(-c2nc(N)nc3c2CCCC3)cc1
98.6 µM: [32]
96.7 µM: [5]
76.9 µM: [50]
98.1 µM: [40]
> 100 µM: [67] | [1] | [2] | [3] | [4] | [60] | [6] | [7] | [61] | [8] | [9] | [10] | [11] | [13] | [14] | [15] | [62] | [18] | [19] | [21] | [22] | [24] | [25] | [27] | [29] | [30] | [31] | [33] | [34] | [35] | [36] | [37] | [39] | [64] | [44] | [65] | [66] | [45] | [46] | [47] | [48] | [49] | [51] | [55] | [57] | [58]
60.5 µM: [68]

From PubChem BioAssay (NCI)
